Data on eleven compounds can be found in US12612410B2 (CHILDREN'S HOSPITAL MEDICAL CENTER, priority 2020, dated 2026).

Usually Kd stands for the free concentration of one partner at which half of the binding sites on the other are occupied at equilibrium, for simple one-to-one binding. Low readings indicate tighter binding, high ones weaker binding.

The target in assay [1] is T1, FLT3 Autoinh. (Homo sapiens, UniProt P36888).
T1 construct: host or cells: E. coli BL21-derived host (T7 phage) or HEK-293
T1 sequence (P36888 564-993 limits assumed): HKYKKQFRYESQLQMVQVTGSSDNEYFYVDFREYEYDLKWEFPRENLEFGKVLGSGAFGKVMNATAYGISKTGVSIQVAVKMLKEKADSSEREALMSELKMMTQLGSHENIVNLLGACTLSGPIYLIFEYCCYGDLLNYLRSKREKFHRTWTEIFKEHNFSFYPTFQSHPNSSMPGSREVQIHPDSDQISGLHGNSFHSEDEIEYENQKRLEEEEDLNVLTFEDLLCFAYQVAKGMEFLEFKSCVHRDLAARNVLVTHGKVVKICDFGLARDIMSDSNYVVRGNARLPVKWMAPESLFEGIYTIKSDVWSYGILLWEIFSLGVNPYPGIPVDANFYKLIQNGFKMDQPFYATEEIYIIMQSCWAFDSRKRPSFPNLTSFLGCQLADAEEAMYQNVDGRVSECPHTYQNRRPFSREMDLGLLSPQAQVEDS
Kind of assay: DiscoverX KINOMEscan competition binding, FLT3 Autoinh. From the text: (§1) Kinase binding data were obtained for various exemplary compounds prepared according to Examples 1-24 using the DiscoverX KINOMVIEscan® active site-directed competition binding site-directed assay protocol described below. […] As a result, the data report thermodynamic interaction affinities (Kd values), rather than IC50 values that are dependent on ATP concentrations. The assay uses a DNA-tagged version of the protein kinase, and an immobilized ligand bound to a solid support. Compounds that directly or indirectly prevent kinase binding to the immobilized ligand reduce the amount of kinase captured on the solid support, which is detected using an ultra-sensitive qPCR method. Affinity constants reported from the assay have been reported to be independent of the immobilized ligand used that is coupled to the solid support (See supplemental information in Fabian, M. A. et. al., (2005) Nat. Biotechnol. 23, 329-336; Wodicka, L. M. et. al., (2010) Chem. Biol. 17, 1241-1249.)
(§2) Kinase-tagged T7 phage strains were prepared in an E. coli host derived from the BL21 strain. E. coli were grown to log-phase and infected with T7 phage and incubated with shaking at 32° C. until lysis. The lysates were centrifuged and filtered to remove cell debris. The remaining kinases were produced in HEK-293 cells and subsequently tagged with DNA for qPCR detection. Streptavidin-coated magnetic beads were treated with biotinylated small molecule ligands for 30 minutes at room temperature to generate affinity resins for kinase assays. The liganded beads were blocked with excess biotin and washed with blocking buffer (SeaBlock (Pierce), 1% BSA, 0.05% Tween 20, 1 mM DTT) to remove unbound ligand and to reduce non-specific binding. Binding reactions were assembled by combining kinases, liganded affinity beads, and test compounds in 1× binding buffer (20% SeaBlock, 0.17×PBS, 0.05% Tween 20, 6 mM DTT). Test compounds were prepared as 111× stocks in 100% DMSO. Kds were determined using an 11-point 3-fold compound dilution series with three DMSO control points. All compounds for Kd measurements are distributed by acoustic transfer (non-contact dispensing) in 100% DMSO. The compounds were then diluted directly into the assays such that the final concentration of DMSO was 0.9%. All reactions were performed in polypropylene 384-well plates. Each was a final volume of 0.02 mL. The assay plates were incubated at room temperature with shaking for 1 hour and the affinity beads were washed with wash buffer (1×PBS, 0.05% Tween 20). The beads were then re-suspended in elution buffer (1×PBS, 0.05% Tween 20, 0.5 μM nonbiotinylated affinity ligand) and incubated at room temperature with shaking for 30 minutes. The kinase concentration in the eluates was measured by qPCR.
(§3) Binding constants (Kds) were calculated with a standard dose-response curve using the Hill equation. The Hill Slope was set to −1. Curves were fitted using a non-linear least square fit with the Levenberg-Marquardt algorithm.

Assay [2] has as its target T2, FLT3 D835H (Homo sapiens, UniProt P36888, D835H).
T2 construct: host or cells: E. coli BL21-derived host (T7 phage) or HEK-293
T2 sequence (P36888 27-993 D835H): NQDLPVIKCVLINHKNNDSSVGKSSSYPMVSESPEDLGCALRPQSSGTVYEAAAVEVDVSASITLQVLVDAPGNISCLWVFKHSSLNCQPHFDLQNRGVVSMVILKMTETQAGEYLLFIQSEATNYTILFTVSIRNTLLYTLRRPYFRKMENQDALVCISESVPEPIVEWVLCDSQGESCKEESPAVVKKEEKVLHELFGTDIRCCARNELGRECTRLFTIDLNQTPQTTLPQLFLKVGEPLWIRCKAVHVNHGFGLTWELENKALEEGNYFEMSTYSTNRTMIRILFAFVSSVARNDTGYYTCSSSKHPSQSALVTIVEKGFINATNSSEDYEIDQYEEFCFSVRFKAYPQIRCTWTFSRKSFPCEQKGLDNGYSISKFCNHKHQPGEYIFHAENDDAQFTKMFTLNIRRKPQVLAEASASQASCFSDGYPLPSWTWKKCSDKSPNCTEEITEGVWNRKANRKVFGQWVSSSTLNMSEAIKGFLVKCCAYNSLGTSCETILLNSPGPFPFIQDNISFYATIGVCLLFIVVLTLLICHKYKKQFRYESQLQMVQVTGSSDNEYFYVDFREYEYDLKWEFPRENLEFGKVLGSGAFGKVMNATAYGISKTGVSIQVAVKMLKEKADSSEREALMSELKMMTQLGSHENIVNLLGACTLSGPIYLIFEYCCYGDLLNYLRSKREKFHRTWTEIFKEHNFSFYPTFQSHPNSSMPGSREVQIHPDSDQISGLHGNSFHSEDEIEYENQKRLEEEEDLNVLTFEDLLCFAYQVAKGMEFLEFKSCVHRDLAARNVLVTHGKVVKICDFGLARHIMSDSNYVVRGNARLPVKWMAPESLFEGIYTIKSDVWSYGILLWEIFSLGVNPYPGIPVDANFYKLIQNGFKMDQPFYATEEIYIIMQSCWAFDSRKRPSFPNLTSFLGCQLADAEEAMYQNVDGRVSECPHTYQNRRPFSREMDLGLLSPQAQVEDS
The experiment in a line: DiscoverX KINOMEscan competition binding, FLT3 D835H.
Excerpt: as §1, §2, §3

For `CC1(c2cn3c(-c4cccc(N[C@H]5CNC[C@@H]5F)n4)cnc3cn2)CC1` [Compound 1, N-((3S,4S)-4-fluoropyrrolidin-3-yl)-6-(6-(1-methylcyclopropyl)imidazo[1,2-a]pyrazin-3-yl)pyridin-2-amine], the figures for the Kd in assay [1] and in assay [2] were 1 nM and 0.066 nM, respectively.
The matching figures for `CC1(c2cn3c(-c4cccc(N[C@@H]5CCNC5)n4)cnc3cn2)CC1` [Compound 3, (R)-6-(6-(1-methylcyclopropyl)imidazo[1,2-a]pyrazin-3-yl)-N-(pyrrolidin-3-yl)pyridin-2-amine]: 1.4 nM and 0.059 nM.
`CC1(c2cn3c(-c4cccc(N[C@H]5CNCC56CC6)n4)cnc3cn2)CC1` [Compound 5, (R)-N-(6-(6-(1-methylcyclopropyl)imidazo[1,2-a]pyrazin-3-yl)pyridin-2-yl)-5-azaspiro[2.4]heptan-7-amine]: the Kd in assay [1] was 0.88 nM; in assay [2], 0.063 nM.
In the case of `FC(F)(F)C1(c2cn3c(-c4cccc(N[C@@H]5CCNC5)n4)cnc3cn2)CC1` [Compound 10, (R)-N-(pyrrolidin-3-yl)-6-(6-(1-(trifluoromethyl)cyclopropyl)imidazo[1,2-a]pyrazin-3-yl)pyridin-2-amine], the Kd in assay [1] came out at 4.2 nM; in assay [2], 0.082 nM.
The matching figures for `FC(F)c1cn2c(-c3cccc(N[C@H]4CNC[C@@H]4F)n3)cnc2cn1` [Compound 16, 6-(6-(difluoromethyl)imidazo[1,2-a]pyrazin-3-yl)-N-((3S,4S)-4-fluoropyrrolidin-3-yl)pyridin-2-amine]: 3 nM and 0.2 nM.
For `FC(F)c1cn2c(-c3cccc(N[C@H]4CNCC[C@@H]4F)n3)cnc2cn1` [Compound 25, 6-(6-(difluoromethyl)imidazo[1,2-a]pyrazin-3-yl)-N-((3S,4S)-4-fluoropiperidin-3-yl)pyridin-2-amine], in that order: 3.6 nM and 0.18 nM.
In the case of `CC(C)(O)c1cn2c(-c3cccc(N[C@@H]4CCCNC4)n3)cnc2cn1` [Compound 30, (R)-2-(3-(6-(piperidin-3-ylamino)pyridin-2-yl)imidazo[1,2-a]pyrazin-6-yl)propan-2-ol], the Kd in assay [1] amounted to 22 nM; in assay [2], 1.2 nM.
For `CC(C)(O)c1cn2c(-c3cccc(N[C@H]4CNCC[C@@H]4F)n3)cnc2cn1` [Compound 31, 2-(3-(6-(((3S,4S)-4-fluoropiperidin-3-yl)amino)pyridin-2-yl)imidazo[1,2-a]pyrazin-6-yl)propan-2-ol], in that order: 10 nM and 0.43 nM.
For `FC(F)(F)COc1cn2c(-c3cccc(N[C@@H]4CCNC4)n3)cnc2cn1` [Compound 38, (R)-N-(pyrrolidin-3-yl)-6-(6-(2,2,2-trifluoroethoxy)imidazo[1,2-a]pyrazin-3-yl)pyridin-2-amine], in that order: 7.6 nM and 0.24 nM.
For `F[C@H]1CNC[C@@H]1Nc1cccc(-c2cnc3cnc(C4CC4)cn23)n1` [Compound 50, 6-(6-cyclopropylimidazo[1,2-a]pyrazin-3-yl)-N-((3S,4S)-4-fluoropyrrolidin-3-yl)pyridin-2-amine], in that order: 1.9 nM and 0.032 nM.
Turning to `Cn1cc(-c2cn3c(-c4cccc(N[C@H]5CNC[C@@H]5F)n4)cnc3cn2)cn1` [Compound 52, N-((3S,4S)-4-fluoropyrrolidin-3-yl)-6-(6-(1-methyl-1H-pyrazol-4-yl)imidazo[1,2-a]pyrazin-3-yl)pyridin-2-amine], the Kd in assay [1] was found to be 1.8 nM; in assay [2], 0.078 nM.
